According to patent US20030139609A1, “Aziridinyl quinone antitumor agents based on indoles and cyclopent[b]indoles” (priority 2001, published 2003):
Where “and” joins values, the source holds several entries; their conditions need not be identical. Identical values can stand only once. Like-named read-outs stand apart in the source and are kept apart here.

Key:
600 bp calf thymus DNA = assay: DNA reductive alkylation by catalytically reduced aziridinyl quinones; assay type: biochemical; details: for DNA alkylation percentage: catalytic reduction, anaerobic, pH 7.4 tris buffer, 30° C., 24 h, absorbance at 550 nm
Protocol: DNA Alkylation Screening of Series 1-9. The extent of DNA reductive alkylation was determined by catalytic reduction of the aziridinyl quinones in the presence of 600 bp calf thymus DNA. Oxidative workup afforded DNA colored blue as a result of the aminoquinone chromophore. […] The anaerobic conditions employed for DNA reductive alkylation assays is not meant to mimic the environment of tumor cells. These conditions do permit an accurate assessment of the structural requirements for DNA alkylation by the hydroquinone species. To be sure, agents incapable of akylating DNA under these ideal conditions will not do so in the typical cellular environment.
Alkylation of DNA by Reduced Indoloquinones. To a mixture of 1-2 mg of sonicated (600 bp) calf thymus DNA in 2.0 mL of 0.05 M of pH 7.4 tris buffer and 2 mg of Pd on carbon was added a five-to-one base pair equivalent amount of the indoloquinone dissolved in 0.5 mL of dimethylsulfoxide. The resulting solution was degassed under argon for 30 min., after which the mixture was purged with H2 for 10 min. The solution was then purged with argon for 10 min. and placed in a 30° C. bath for 24 h. The reaction was opened to the air and the catalyst was removed with a Millex-PF […] syringe filter. The filtrate was adjusted to 0.3 M acetate with a 3 M stock solution of pH 5.1 acetate and then diluted with two volumes of ethanol. The mixture was chilled at −20° C. for 12 h and the DNA pellet collected by centrifuging at 12,000 g for 20 min. The pellet was redissolved in water and then precipitated and centrifuged again. The resulting blue or red pellet was suspended in ethanol, centrifuged, and dried. The dried pellet was weighed and dissolved in 1 mL of double distilled water resulting in a clear colored solution with […]max˜550 nm, □˜750 M^−1 cm^−1. This is the chromophore of the aminoquinone resulting from nucleophile-mediated opening of the aziridine ring. Model 2′-chloroethyl aminoquinones for extinction coefficient determination were prepared by treatment of the indoloquinone with HCl. {Skibo, E. B. and Xing, C., Chemistry and DNA Alkylation Reactions of Aziridinyl Quinones: Development of an Efficient Alkylating Agent of the Phosphate Backbone, Biochemistry, 1998, 37, 15199-15213}.

[1] = tested on: National Cancer Institute 60-cell line; assay: NCI 60-cell line in vitro screen (average cytotoxicity and cancer specificity); details: for Average Log LC50 60-Cell Line: mean over 60 cell lines, ± value measures cancer specificity
Protocol: Cytotoxic and Cytostatic Screening of Series 1-9. […] The cytostatic parameters include GI50 and TGI, which are the concentrations of drug required for 50% growth inhibition and total growth inhibition, respectively. The cytotoxic parameter is the LC50, which is the concentration required for 50% cell kill.
4. […] Cancer specificity is measured from the ± value under the “Average Log LC50 60-Cell Line” heading of Table 5. A ± value greater than 2 indicates a greater than 100-fold higher/lower cytotoxicity in some histological cancer types compared to the mean cytotoxicity.
The DT-diaphorase levels in the National Cancer Institute 60-cell line in vitro screen have been determined and correlated with the cytotoxicity of antitumor agents activated by 2-electron reduction. {Fitzsimmons, S. A., Workman, P., Grever, M., Paull, K., Camalier, R., and Lewis, A. D., Reductase Enzyme Expression Across the National Cancer Institute Tumor Cell Line Panel: Correlation with Sensitivity To Mitomycin C and EO9, J. Natl. Cancer Inst., 1996, 88, 259-69}. Sensitive cancers usually include NSC lung and colon cancers (and to a lesser extent CNS, melanoma, and renal cancers) by virtue of their elevated DT-diaphorase levels.

[2] = tested on: NCI-H460 non-small-lung cancer cell line; assay: NCI In Vitro Cell Line Screening, NSC H460 cell line; assay type: cell-based; details: for Log TGI NSC H460: concentration for total growth inhibition; for GI50 / CC50: Homo sapiens
Source text: Cytotoxic and Cytostatic Screening of Series 1-9.

B16 melanoma = assay: animal or person; assay type: in vivo; details: for in vivo toxicity (in words): 2, 3 or 5 mg/kg/day
Source text: Shown in Tables 6 and 7 are B16 melanoma syngraft assays {Griswold, D. P., Consideration of the Subcutaneously Implanted B16 Melanoma as a Screening Model for Potential Anticancer Agents, Cancer Chemother Reports, 1972, 3, 315-324} of some members of Series 1-9, as well as related compounds previously reported from this laboratory. {Xing, C. G., Wu, P., Skibo, E. B., and Dorr, R. T., Design of cancer-specific antitumor agents based on aziridlinylcyclopent[b]indoloquinones, J. Med. Chem., 2000, 43, 457-466}. Each agent was evaluated at three doses in C57/bl mice: 2, 3 or 5 mg/kg/day, on days 1, 5, and 9 after subcutaneous tumor implantation of 10^5 cells in the front flank on day 0. “Toxic” means that there was early lethality, or ≧50% lethality prior to any deaths in the control group. The treated over control values (T/C) were measured at day 25 of the study. A T/C value <40% is considered active.
In vivo Evaluation. The B-16 melanoma in C57/bl mice syngraft model was employed to determine in vivo activity. {Griswold, D. P., Consideration of the Subcutaneously Implanted B16 Melanoma as a Screening Model for Potential Anticancer Agents, Cancer Chemother Reports, 1972, 3, 315-324}. Each agent was evaluated at three doses: 2, 3 or 5 mg/kg/day, on days 1, 5, and 9 after subcutaneous tumor implantation of 10^5 cells in the front flank on day 0. “Toxic” means that there was early lethality, or ≧50% lethality prior to any deaths in the control group. The treated over control values (T/C) were measured at day 25 of the study. A T/C value<40% is considered active. […] The control was obtained with drug-free animals.

[3] = NCI-H460, concentration for 50% growth inhibition, read-out: Log GI50 NSC H460 (converted)
[4] = NCI-H460, read-out: Log LC50 NSC H460, concentration for 50% cell kill (converted)
[5] = 5 mg/Kg/Day on days 1, 5, 9, T/C at day 25, <40% active
[6] = Mus musculus, B16, 600 h, read-out: In vivo T/C (Treated/Control)

6-Aziridinyl-3-(hydroxymethyl)-2-methylcarboxylindol-4,7-dione [Compound 9b]
% of DNA bases reductively activated (600 bp calf thymus DNA): 2% | DNA alkylation percentage (600 bp calf thymus DNA): 2.2% | Average Log LC50 60-Cell Line [1]: −5.20 ± 1.04 and −5.32 ± 1.14 | cytostatic/cytotoxic activity versus histological cancer type (in words) ([1]; text b52, FIG. 4): significant cytotoxic and cytostatic properties | Log LC50 NSC H460 ([2]; concentration for 50% cell kill): −5.21 and −4.95 | Log GI50 NSC H460 ([2]; concentration for 50% growth inhibition): −5.90 and −5.80 | Log TGI NSC H460 [2]: −5.55 and −5.39

O=C1C=C(N2CC2)C(=O)c2c1[nH]c1c2CCC1O (stereo not drawn) [Compound 1a, 7-Aziridinyl-3-hydroxy-1,2,3,4-tetrahydrocyclopent[b]indole-5,8-dione]
DNA alkylation percentage (600 bp calf thymus DNA): 22.5% | Average Log LC50 60-Cell Line [1]: −5.66 ± 1.52 | GI50 [2, 3]: 10 nM | CC50 [2, 4]: 295 nM | Log TGI NSC H460 [2]: −6.99

CC1=C(N2CC2)C(=O)c2c([nH]c3c2CCC3O)C1=O (stereo not drawn) [Compound 2a, 7-Aziridinyl-3-hydroxy-6-methyl-1,2,3,4-tetrahydrocyclopent[b]indole-5,8-dione]
DNA alkylation percentage (600 bp calf thymus DNA): 11.2% | GI50 [2, 3]: 10 nM

CC(=O)OC1CCc2c1[nH]c1c2C(=O)C=C(N2CC2)C1=O (stereo not drawn) [Compound 3b, 3-Acetoxy-6-aziridinyl-1,2,3,4-tetrahydrocyclopent[b]indole-5,8-dione]
DNA alkylation percentage (600 bp calf thymus DNA): 29% | In vivo T/C (Treated/Control) (B16 melanoma; [5]): Toxic (“Toxic” means ≧ 50% lethality before any control growth deaths)

CC(=O)OC1CCc2c3c(n(C(C)=O)c21)C(=O)C(N1CC1)=CC3=O (stereo not drawn) [Compound 3c, 6-Aziridinyl-3-acetoxy-4-acetyl-1,2,3,4-tetrahydrocyclopent[b]indole-5,8-dione]
in vivo toxicity (in words) (B16 melanoma): toxic | response vs control in vivo at 2 mg/kg (B16 melanoma; [6]): > 50% | response vs control in vivo at 3 mg/kg (B16 melanoma; [6]): > 50% | response vs control in vivo at 5 mg/kg (B16 melanoma; [6]): > 50%

CC1=C(N2CC2)C(=O)c2[nH]c3c(c2C1=O)CCC3O (stereo not drawn) [Compound 4a]
DNA alkylation percentage (600 bp calf thymus DNA): 10% | GI50 [2, 3]: 10 nM | CC50 [2, 4]: 100000 nM | Log TGI NSC H460 [2]: −6.97 | in vivo toxicity (in words) (B16 melanoma): without any toxicity | response vs control in vivo at 2 mg/kg (B16 melanoma; Mus musculus, B16, 600 h, 2 mg/Kg/Day on days 1, 5, 9, T/C at day 25, <40% active, read-out: In vivo T/C (Treated/Control)): 75% | response vs control in vivo at 3 mg/kg (B16 melanoma; Mus musculus, B16, 600 h, 3 mg/Kg/Day on days 1, 5, 9, T/C at day 25, <40% active, read-out: In vivo T/C (Treated/Control)): 45%

O=C1C=C(N2CC2)C(=O)c2c1[nH]c(CO)c2CO [Compound 6a, 5-Aziridinyl-2,3-di(hydroxymethyl)indole-4,7-dione]
DNA alkylation percentage (600 bp calf thymus DNA): 16.7% | In vivo T/C (Treated/Control) (B16 melanoma; 2 mg/Kg/Day on days 1, 5, 9, T/C at day 25, <40% active): Toxic (“Toxic” means ≧ 50% lethality before any control growth deaths) | In vivo T/C (Treated/Control) (B16 melanoma; 3 mg/Kg/Day on days 1, 5, 9, T/C at day 25, <40% active): Toxic (“Toxic” means ≧ 50% lethality before any control growth deaths) | In vivo T/C (Treated/Control) (B16 melanoma; [5]): Toxic (“Toxic” means ≧ 50% lethality before any control growth deaths)

CCOC(=O)c1[nH]c2c(c1CO)C(=O)C(N1CC1)=CC2=O [Compound 6c, 5-Aziridinyl-2-ethylcarboxyl-3-(hydroxymethyl)indole-4,7-dione]
Average Log LC50 60-Cell Line [1]: −5.79 ± 1.98 | GI50 ([2]; NCI-H460, read-out: Log GI50 NSC H460 (converted)): 10 nM | CC50 [2, 4]: 631 nM | CC50 ([2]; NCI-H460, read-out: −log LC50 value, H460 cell line (converted)): 631 nM | Log TGI NSC H460 [2]: −7 and −6.95
